Results reported in patent US8178506B2, “Oligomeric compounds and compositions for use in modulation of small non-coding RNAs” (Regulus Therapeutics Inc., priority 2003, dated 2012).
In the oligonucleotide strings, read from the 5' end, every base follows the letter of its sugar. An asterisk marks phosphorothioate; unmarked linkages are phosphodiester. Other units and linkages are bracketed, terminal groups are in braces. A string of capitals states the bases alone. e = 2'-O-(2-methoxyethyl) (MOE); [5mC] = 5-methylcytosine; d = 2'-deoxy (DNA)

Tested on: T47D cells
Assay: Caspase-3 activity assay (apoptosis) in T47D cells
Conditions: for apoptosis in T47D cells: caspase assay, conclusion from Tables 9-12; for apoptosis in T47D cells / Fold Increase over UTC (caspase activity): 200 nM; for Fold Increase over UTC (caspase-3 activity, apoptosis) / Fold Increase over UTC (caspase activity): T47D cells, 48 hours; for Fold Increase over UTC (caspase-3 activity, apoptosis): 200 nM oligomeric compound; for Fold Increase over UTC (caspase activity): relative to untreated control

Substance | apoptosis in T47D cells | also measured
GCTTTTAGAACCACTGCCTC (antisense; same sequence listed as MOE 5-10-5 gapmer and as uniform MOE, further chemistry not given here) [ISIS 328646] | induce apoptosis | –
328432 (antisense eG*eA*eG*e[5mC]*eA*dT*dG*d[5mC]*dA*dA*d[5mC]*dA*d[5mC]*dT*d[5mC]*eT*eG*eT*eG*e[5mC]) [compound 328432] | – | Fold Increase over UTC (caspase-3 activity, apoptosis) (experiment of Table 12): 0.6 fold
ISIS 328397: 5-10-5 2′-MOE gapmer PS; targets mir-103-1 pri-miRNA (eT*eT*eG*eA*eT*d[5mC]*d[5mC]*dA*dT*dA*dT*dG*d[5mC]*dA*dA*e[5mC]*eA*eA*eG*eG) | induce apoptosis | –
SEQ ID NO 483: gapmer of Tables 9-12 having this SEQ ID NO (antisense eA*eG*e[5mC]*eT*eT*dT*dA*dG*d[5mC]*dT*dG*dG*dG*dT*d[5mC]*eA*eG*eG*eA*e[5mC]) | induce apoptosis | –
GCCTCCTTCATATATTCTCA (antisense; same sequence listed as MOE 5-10-5 gapmer and as uniform MOE, further chemistry not given here) [ISIS 328690] | prevent or have a protective effect from apoptosis | –
328381 (eA*e[5mC]*eA*eG*eG*dT*dG*dA*dG*d[5mC]*dG*dG*dA*dT*dG*eT*eT*e[5mC]*eT*eG; antisense) [compound 328381] | – | Fold Increase over UTC (caspase activity): 1.1
328431 (antisense eA*e[5mC]*e[5mC]*eT*e[5mC]*dT*d[5mC]*dA*dG*dG*dA*dA*dG*dA*d[5mC]*eG*eG*eA*e[5mC]*eT) [compound 328431] | – | Fold Increase over UTC (caspase-3 activity, apoptosis) (experiment of Table 10): 0.9 fold
TTTCAGGCTCACCTCCCCAG (antisense; same sequence listed as MOE 5-10-5 gapmer and as uniform MOE, further chemistry not given here) [ISIS 328656] | induce apoptosis | –
SEQ ID NO 502: gapmer of Tables 9-12 having this SEQ ID NO (antisense eG*e[5mC]*eT*eG*eG*d[5mC]*d[5mC]*dT*dG*dA*dT*dA*dG*d[5mC]*d[5mC]*e[5mC]*eT*eT*e[5mC]*eT) | induce apoptosis | –
SEQ ID NO 498: gapmer of Tables 9-12 having this SEQ ID NO (antisense eG*eG*e[5mC]*eA*e[5mC]*dT*dT*d[5mC]*dA*dT*dT*dG*d[5mC]*dT*dG*e[5mC]*eT*eG*e[5mC]*e[5mC]) | induce apoptosis | –
328406 (antisense eA*eG*e[5mC]*eA*eA*dG*dT*d[5mC]*dT*dA*d[5mC]*dT*d[5mC]*d[5mC]*dT*e[5mC]*eA*eG*eG*eG) [compound 328406] | – | Fold Increase over UTC (caspase-3 activity, apoptosis) (experiment of Table 11): 1.0 fold
328694 (e[5mC]*eA*eA*eA*e[5mC]*dG*dG*dT*dA*dA*dG*dA*dT*dT*dT*eG*e[5mC]*eA*eG*eA; antisense) [compound 328694] | – | Fold Increase over UTC (caspase-3 activity, apoptosis) (experiment of Table 10): 0.8 fold
328435 (antisense eT*e[5mC]*eT*eA*eA*dG*dG*dG*dG*dT*d[5mC]*dA*d[5mC]*dA*dG*eA*eA*eG*eG*eT) [compound 328435] | – | Fold Increase over UTC (caspase-3 activity, apoptosis) (experiment of Table 11): 1.3 fold
328420 (antisense eG*e[5mC]*eT*eG*eA*dT*dT*dA*d[5mC]*dG*dA*dA*dA*dG*dA*e[5mC]*eA*eG*eG*eA) [compound 328420] | – | Fold Increase over UTC (caspase activity): 1.0
328395 (antisense e[5mC]*e[5mC]*e[5mC]*eA*eG*dT*dG*dG*dT*dG*dG*dG*dT*dG*dT*eG*eA*e[5mC]*e[5mC]*e[5mC]) [compound 328395] | – | Fold Increase over UTC (caspase-3 activity, apoptosis) (experiment of Table 10): 1.0 fold
SEQ ID NO 488: gapmer of Tables 9-12 having this SEQ ID NO (antisense e[5mC]*eT*eG*eA*e[5mC]*dT*dG*dA*dG*dA*d[5mC]*dT*dG*dT*dT*e[5mC]*eA*e[5mC]*eA*eG) | induce apoptosis | –
GACAAGGTGGGAGCGAGTGG (antisense; same sequence listed as MOE 5-10-5 gapmer and as uniform MOE, further chemistry not given here) [ISIS 328644] | prevent or have a protective effect from apoptosis | –
CCGAGGGTCTAACCCAGCCC (antisense; same sequence listed as MOE 5-10-5 gapmer and as uniform MOE, further chemistry not given here) [ISIS 328638] | prevent or have a protective effect from apoptosis | –
328407 (antisense eA*eA*eT*eG*eG*dA*dG*d[5mC]*d[5mC]*dA*dA*dG*dG*dT*dG*e[5mC]*eT*eG*e[5mC]*e[5mC]) [compound 328407] | – | Fold Increase over UTC (caspase-3 activity, apoptosis) (experiment of Table 11): 1.2 fold
328648 (eA*e[5mC]*eT*eG*eA*dT*dT*d[5mC]*dA*dA*dG*dA*dG*d[5mC]*dT*eT*eT*eG*eT*eA; antisense) [compound 328648] | – | Fold Increase over UTC (caspase activity): 1.1
SEQ ID NO 532: gapmer of Tables 9-12 having this SEQ ID NO (antisense e[5mC]*e[5mC]*eA*e[5mC]*eA*dT*dA*dT*dA*d[5mC]*dA*dT*dA*dT*dA*eT*eA*e[5mC]*eG*e[5mC]) | prevent or have a protective effect from apoptosis | –
AAAAATAATCTCTGCACAGG (antisense; same sequence listed as MOE 5-10-5 gapmer and as uniform MOE, further chemistry not given here) [ISIS 328657] | prevent or have a protective effect from apoptosis | –
SEQ ID NO 519: gapmer of Tables 9-12 having this SEQ ID NO (antisense eG*eG*eG*e[5mC]*e[5mC]*dT*dA*dT*d[5mC]*d[5mC]*dA*dA*dA*dG*dT*eG*eA*e[5mC]*eA*eG) | induce apoptosis | –
328689 (eT*eA*e[5mC]*eA*eA*dT*dT*dT*dG*dG*dG*dA*dG*dT*d[5mC]*e[5mC]*eT*eG*eA*eA; antisense) [compound 328689] | – | Fold Increase over UTC (caspase-3 activity, apoptosis) (experiment of Table 11): 0.8 fold
328412 (antisense eT*eT*eT*eA*e[5mC]*dT*d[5mC]*dA*dT*dA*d[5mC]*d[5mC]*dT*d[5mC]*dG*e[5mC]*eA*eA*e[5mC]*e[5mC]) [compound 328412] | – | Fold Increase over UTC (caspase-3 activity, apoptosis) (experiment of Table 12): 1.2 fold
TGCCATGAGATTCAACAGTC (2'-MOE gapmer, phosphorothioate, chemistry not fully specified) [ISIS 328415] | induce apoptosis | –
328430 (antisense e[5mC]*e[5mC]*eG*eG*e[5mC]*dT*dA*dT*dT*dG*dA*dG*dT*dT*dA*eT*eG*eT*eA*e[5mC]) [compound 328430] | – | Fold Increase over UTC (caspase-3 activity, apoptosis) (experiment of Table 12): 1.3 fold
328652 (eG*eG*e[5mC]*e[5mC]*eT*dA*dA*dT*dA*dT*d[5mC]*d[5mC]*d[5mC]*dT*dA*e[5mC]*e[5mC]*e[5mC]*e[5mC]*eA; antisense) [compound 328652] | – | Fold Increase over UTC (caspase-3 activity, apoptosis) (experiment of Table 10): 1.2 fold
TTGTATGGACATTTAAATCA (antisense; same sequence listed as MOE 5-10-5 gapmer and as uniform MOE, further chemistry not given here) [ISIS 328692] | induce apoptosis | –
328433 (antisense e[5mC]*e[5mC]*eT*e[5mC]*e[5mC]*dT*dT*dG*dT*dG*dG*dG*d[5mC]*dA*dA*eA*eA*eT*e[5mC]*e[5mC]) [compound 328433] | – | Fold Increase over UTC (caspase activity): 1.0
